In the kinase profiling compilation of Christmann-Franck et al. (2016):

Assays:
Experiment in all cases: KINOMEscan competition binding
Details in all cases: compound 10.0 µM
PIP4K2B (human) = PIP4K2B (human) (UniProt P78356)
CSNK2A1 (human) = CSNK2A1 (human) (UniProt P68400)
MYLK3 (human) = MYLK3 (human) (UniProt Q32MK0)
MAPK15 (human) = MAPK15 (human) (UniProt Q8TD08)
PIP5K1A (human) = PIP5K1A (human) (UniProt Q99755)
MAP4K2 (human) = MAP4K2 (human) (UniProt Q12851)
STK17A (human) = STK17A (human) (UniProt Q9UEE5)
CDK7 (human) = CDK7 (human) (UniProt P50613)
PIM3 (human) = PIM3 (human) (UniProt Q86V86)
RPS6KA5 KD2 (human) = RPS6KA5 KD2 (human) (UniProt O75582)
STK17B (human) = STK17B (human) (UniProt O94768)
BMP2K (human) = BMP2K (human) (UniProt Q9NSY1)
DMPK (human) = DMPK (human) (UniProt Q09013)
AURKC (human) = AURKC (human) (UniProt Q9UQB9)
RPS6KA2 KD2 (human) = RPS6KA2 KD2 (human) (UniProt Q15349)
PIM1 (human) = PIM1 (human) (UniProt P11309)
CSNK1D (human) = CSNK1D (human) (UniProt P48730)
PHKG2 (human) = PHKG2 (human) (UniProt P15735)
AURKB (human) = AURKB (human) (UniProt Q96GD4)
CSNK1G1 (human) = CSNK1G1 (human) (UniProt Q9HCP0)
ACVR2B (human) = ACVR2B (human) (UniProt Q13705)
RIOK1 (human) = RIOK1 (human) (UniProt Q9BRS2)
TAOK3 (human) = TAOK3 (human) (UniProt Q9H2K8)
AAK1 (human) = AAK1 (human) (UniProt Q2M2I8)
PIK3CG (human) = PIK3CG (human) (UniProt P48736)
MYLK (human) = MYLK (human) (UniProt Q15746)
CSNK2A2 (human) = CSNK2A2 (human) (UniProt P19784)
[1] = system: EIF2AK4 KD2 (human), Q9P2K8 [S808G]
DCLK3 (human) = DCLK3 (human) (UniProt Q9C098)
MINK1 (human) = MINK1 (human) (UniProt Q8N4C8)
CIT (human) = CIT (human) (UniProt O14578)
PLK4 (human) = PLK4 (human) (UniProt O00444)
CDK16 (human) = CDK16 (human) (UniProt Q00536)
BRSK2 (human) = BRSK2 (human) (UniProt Q8IWQ3)
MAP3K5 (human) = MAP3K5 (human) (UniProt Q99683)
ACVR2A (human) = ACVR2A (human) (UniProt P27037)
[2] = system: KIT (human), P10721 [D816V]
GSK3A (human) = GSK3A (human) (UniProt P49840)
MAP3K7 (human) = MAP3K7 (human) (UniProt O43318)
MKNK2 (human) = MKNK2 (human) (UniProt Q9HBH9)
[3] = system: FLT3 (human), P36888 [N841I]
NEK2 (human) = NEK2 (human) (UniProt P51955)

Sequence of PIM1 (human) (P11309 whole entry, looked up): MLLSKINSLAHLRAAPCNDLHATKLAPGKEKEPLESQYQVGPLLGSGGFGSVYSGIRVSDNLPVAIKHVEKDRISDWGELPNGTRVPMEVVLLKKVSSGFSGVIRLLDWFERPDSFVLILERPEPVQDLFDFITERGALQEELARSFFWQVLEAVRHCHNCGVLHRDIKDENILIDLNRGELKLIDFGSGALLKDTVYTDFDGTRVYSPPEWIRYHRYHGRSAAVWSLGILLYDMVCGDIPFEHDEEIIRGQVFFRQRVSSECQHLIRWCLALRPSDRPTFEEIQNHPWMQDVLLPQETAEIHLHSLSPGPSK
Sequence of CDK16 (human) (Q00536 whole entry, looked up): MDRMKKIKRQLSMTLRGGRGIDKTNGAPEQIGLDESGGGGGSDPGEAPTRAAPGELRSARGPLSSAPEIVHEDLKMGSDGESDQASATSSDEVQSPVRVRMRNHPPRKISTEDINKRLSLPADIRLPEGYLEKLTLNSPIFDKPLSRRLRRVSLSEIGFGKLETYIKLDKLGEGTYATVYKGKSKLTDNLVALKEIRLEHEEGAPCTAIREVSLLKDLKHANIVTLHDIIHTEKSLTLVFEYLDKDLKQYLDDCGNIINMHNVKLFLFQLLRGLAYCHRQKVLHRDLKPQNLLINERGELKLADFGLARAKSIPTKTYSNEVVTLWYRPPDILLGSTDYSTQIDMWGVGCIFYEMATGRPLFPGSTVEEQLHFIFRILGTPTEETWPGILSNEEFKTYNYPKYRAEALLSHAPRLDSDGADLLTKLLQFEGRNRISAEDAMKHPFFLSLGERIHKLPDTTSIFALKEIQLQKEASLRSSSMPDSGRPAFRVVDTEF
Sequence of CSNK2A2 (human) (P19784 whole entry, looked up): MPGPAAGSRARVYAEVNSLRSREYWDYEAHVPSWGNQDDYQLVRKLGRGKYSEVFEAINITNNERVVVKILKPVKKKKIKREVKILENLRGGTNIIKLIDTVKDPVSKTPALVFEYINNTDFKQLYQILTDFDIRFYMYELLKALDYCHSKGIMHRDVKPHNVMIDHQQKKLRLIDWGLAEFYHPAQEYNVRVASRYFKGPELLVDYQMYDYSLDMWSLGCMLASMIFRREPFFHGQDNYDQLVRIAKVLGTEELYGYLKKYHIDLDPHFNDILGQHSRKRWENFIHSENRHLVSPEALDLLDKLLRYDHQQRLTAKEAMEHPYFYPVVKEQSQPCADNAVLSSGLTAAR
Sequence of CSNK1D (human) (P48730 whole entry, looked up): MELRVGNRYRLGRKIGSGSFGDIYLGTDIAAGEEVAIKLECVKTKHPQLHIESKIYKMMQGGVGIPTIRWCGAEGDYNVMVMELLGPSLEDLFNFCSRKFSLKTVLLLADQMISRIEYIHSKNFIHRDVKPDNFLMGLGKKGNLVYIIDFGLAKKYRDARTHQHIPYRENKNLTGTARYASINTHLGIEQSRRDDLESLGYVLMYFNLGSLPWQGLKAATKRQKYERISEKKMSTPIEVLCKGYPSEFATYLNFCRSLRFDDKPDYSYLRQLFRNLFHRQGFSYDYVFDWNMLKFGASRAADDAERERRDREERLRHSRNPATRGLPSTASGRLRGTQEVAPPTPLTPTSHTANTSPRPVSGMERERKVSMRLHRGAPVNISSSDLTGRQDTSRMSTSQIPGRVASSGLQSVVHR
Sequence of PLK4 (human) (O00444 whole entry, looked up): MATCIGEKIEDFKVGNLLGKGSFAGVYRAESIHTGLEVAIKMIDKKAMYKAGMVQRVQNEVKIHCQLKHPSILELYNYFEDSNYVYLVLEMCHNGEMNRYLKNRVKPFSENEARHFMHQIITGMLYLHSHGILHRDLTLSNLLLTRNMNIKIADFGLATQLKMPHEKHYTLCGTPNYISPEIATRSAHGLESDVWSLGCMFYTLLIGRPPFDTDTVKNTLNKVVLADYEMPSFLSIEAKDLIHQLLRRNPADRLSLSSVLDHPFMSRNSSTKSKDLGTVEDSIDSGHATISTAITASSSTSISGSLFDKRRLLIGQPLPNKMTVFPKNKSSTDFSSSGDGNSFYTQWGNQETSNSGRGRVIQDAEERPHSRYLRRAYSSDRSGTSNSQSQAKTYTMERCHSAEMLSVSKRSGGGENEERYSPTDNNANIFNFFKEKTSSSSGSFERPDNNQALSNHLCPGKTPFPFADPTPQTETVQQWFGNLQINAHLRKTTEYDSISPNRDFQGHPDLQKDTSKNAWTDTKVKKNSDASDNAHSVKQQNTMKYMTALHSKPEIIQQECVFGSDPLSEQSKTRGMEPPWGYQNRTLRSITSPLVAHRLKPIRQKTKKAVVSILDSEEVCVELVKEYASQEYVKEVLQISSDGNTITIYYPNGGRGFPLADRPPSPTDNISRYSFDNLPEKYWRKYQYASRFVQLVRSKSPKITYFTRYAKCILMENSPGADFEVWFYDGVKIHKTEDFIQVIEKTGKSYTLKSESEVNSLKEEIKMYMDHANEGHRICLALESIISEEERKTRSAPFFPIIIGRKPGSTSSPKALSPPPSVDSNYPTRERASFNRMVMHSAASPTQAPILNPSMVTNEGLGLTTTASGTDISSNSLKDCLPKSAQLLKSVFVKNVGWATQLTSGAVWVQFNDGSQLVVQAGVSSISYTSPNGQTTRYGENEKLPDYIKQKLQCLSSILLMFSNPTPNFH
Sequence of BRSK2 (human) (Q8IWQ3 whole entry, looked up): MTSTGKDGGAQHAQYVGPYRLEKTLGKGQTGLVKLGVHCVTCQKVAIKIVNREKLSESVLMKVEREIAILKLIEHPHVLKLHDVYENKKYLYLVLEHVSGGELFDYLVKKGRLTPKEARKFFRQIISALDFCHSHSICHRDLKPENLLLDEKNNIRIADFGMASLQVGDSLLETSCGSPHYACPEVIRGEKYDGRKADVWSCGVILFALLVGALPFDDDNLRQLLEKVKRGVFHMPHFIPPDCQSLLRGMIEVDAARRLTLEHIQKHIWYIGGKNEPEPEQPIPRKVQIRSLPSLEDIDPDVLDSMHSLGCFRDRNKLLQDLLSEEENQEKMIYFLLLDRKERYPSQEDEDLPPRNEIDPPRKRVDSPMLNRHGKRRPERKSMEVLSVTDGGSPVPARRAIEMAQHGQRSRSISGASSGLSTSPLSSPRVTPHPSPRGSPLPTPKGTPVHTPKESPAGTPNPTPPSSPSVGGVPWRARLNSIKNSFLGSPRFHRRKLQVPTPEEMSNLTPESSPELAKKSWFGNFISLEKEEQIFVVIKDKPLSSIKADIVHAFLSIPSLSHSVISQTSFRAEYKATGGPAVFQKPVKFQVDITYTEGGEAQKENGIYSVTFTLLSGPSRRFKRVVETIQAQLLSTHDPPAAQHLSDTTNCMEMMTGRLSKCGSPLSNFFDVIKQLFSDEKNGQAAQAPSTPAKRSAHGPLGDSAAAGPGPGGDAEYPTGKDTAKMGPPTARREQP
Sequence of PIP5K1A (human) (Q99755 whole entry, looked up): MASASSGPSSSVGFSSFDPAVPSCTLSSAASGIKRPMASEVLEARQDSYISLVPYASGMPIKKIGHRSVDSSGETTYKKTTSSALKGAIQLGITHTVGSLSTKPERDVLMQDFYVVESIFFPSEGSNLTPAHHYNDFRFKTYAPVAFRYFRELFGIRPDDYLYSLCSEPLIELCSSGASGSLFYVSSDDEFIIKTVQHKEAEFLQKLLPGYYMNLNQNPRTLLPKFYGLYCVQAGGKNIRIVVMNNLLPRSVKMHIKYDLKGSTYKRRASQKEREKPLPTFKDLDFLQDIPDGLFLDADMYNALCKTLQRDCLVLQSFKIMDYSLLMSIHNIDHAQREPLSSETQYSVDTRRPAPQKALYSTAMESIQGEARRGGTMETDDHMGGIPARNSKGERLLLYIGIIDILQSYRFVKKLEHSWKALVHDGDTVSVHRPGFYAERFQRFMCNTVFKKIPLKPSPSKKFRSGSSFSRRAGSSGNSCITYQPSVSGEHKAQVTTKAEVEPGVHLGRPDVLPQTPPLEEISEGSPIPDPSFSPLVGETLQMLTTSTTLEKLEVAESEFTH
Sequence of RIOK1 (human) (Q9BRS2 whole entry, looked up): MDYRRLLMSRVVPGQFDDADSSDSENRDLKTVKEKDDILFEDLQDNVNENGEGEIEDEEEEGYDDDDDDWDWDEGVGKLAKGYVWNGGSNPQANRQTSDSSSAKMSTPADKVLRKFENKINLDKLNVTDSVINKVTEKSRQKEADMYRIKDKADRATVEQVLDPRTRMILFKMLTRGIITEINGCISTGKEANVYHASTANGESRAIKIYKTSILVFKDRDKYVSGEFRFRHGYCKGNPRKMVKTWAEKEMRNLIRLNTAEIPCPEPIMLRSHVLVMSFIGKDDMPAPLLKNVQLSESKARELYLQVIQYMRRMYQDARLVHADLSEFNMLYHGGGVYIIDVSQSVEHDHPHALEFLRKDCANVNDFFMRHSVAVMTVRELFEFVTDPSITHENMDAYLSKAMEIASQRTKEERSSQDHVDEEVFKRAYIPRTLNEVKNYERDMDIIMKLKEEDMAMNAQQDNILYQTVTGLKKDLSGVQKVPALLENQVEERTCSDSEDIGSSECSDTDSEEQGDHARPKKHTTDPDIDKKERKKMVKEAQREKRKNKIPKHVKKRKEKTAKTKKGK
Sequence of PHKG2 (human) (P15735 whole entry, looked up): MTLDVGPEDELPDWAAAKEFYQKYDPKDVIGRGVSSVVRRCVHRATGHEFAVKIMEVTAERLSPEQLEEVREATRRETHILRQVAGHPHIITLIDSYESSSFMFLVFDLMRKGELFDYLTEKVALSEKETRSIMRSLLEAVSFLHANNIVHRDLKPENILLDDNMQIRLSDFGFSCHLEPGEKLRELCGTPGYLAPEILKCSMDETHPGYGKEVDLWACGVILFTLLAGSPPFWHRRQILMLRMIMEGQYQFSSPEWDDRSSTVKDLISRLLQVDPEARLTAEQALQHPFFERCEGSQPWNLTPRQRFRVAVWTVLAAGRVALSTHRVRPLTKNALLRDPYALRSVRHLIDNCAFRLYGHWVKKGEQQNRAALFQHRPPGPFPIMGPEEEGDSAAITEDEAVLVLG

Row | Compound | kinase still bound, per cent of control (MYLK3 (human)) [%] | kinase still bound, per cent of control (STK17A (human)) [%] | kinase still bound, per cent of control (CDK7 (human)) [%] | kinase still bound, per cent of control (PIM3 (human)) [%] | kinase still bound, per cent of control (RPS6KA5 KD2 (human)) [%] | kinase still bound, per cent of control (STK17B (human)) [%] | kinase still bound, per cent of control (BMP2K (human)) [%] | kinase still bound, per cent of control (DMPK (human)) [%] | kinase still bound, per cent of control (PIM1 (human)) [%] | kinase still bound, per cent of control (ACVR2B (human)) [%] | kinase still bound, per cent of control (RIOK1 (human)) [%] | kinase still bound, per cent of control (TAOK3 (human)) [%] | kinase still bound, per cent of control (AAK1 (human)) [%] | kinase still bound, per cent of control (PIK3CG (human)) [%] | kinase still bound, per cent of control (CSNK2A2 (human)) [%] | kinase still bound, per cent of control (DCLK3 (human)) [%] | kinase still bound, per cent of control (MINK1 (human)) [%] | kinase still bound, per cent of control (PLK4 (human)) [%] | kinase still bound, per cent of control (BRSK2 (human)) [%] | kinase still bound, per cent of control (MAPK15 (human)) [%] | other results
1 | N=C1NC(=O)/C(=C/c2ccc(-c3ccc(F)cc3O)o2)S1 | 16 | 0.3 | 0.95 | 4.7 | 24 | 2.9 |  |  | 3.8 | 16 | 23 | 0.2 | 16 | 0 | 15 | 1 | 24 | 4.6 | 23 | 0.1 | kinase still bound, per cent of control (CIT (human)): 33%; kinase still bound, per cent of control (CDK16 (human)): 0.1%; kinase still bound, per cent of control (CSNK1D (human)): 24%; kinase still bound, per cent of control (PHKG2 (human)): 15%; kinase still bound, per cent of control (MAP3K5 (human)): 14%
2 | N=C1NC(=O)/C(=C/c2ccc(-c3ccccc3O)o2)S1 | 29 | 0.4 | 1.4 | 2.1 | 29 | 2 | 14 |  | 1.4 | 15 | 21 | 0.05 | 8.2 |  | 17 | 2.9 | 15 | 3.2 | 29 | 0.3 | kinase still bound, per cent of control (PIP4K2B (human)): 28%; kinase still bound, per cent of control (CSNK2A1 (human)): 9.9%; kinase still bound, per cent of control (ACVR2A (human)): 31%; kinase still bound, per cent of control (PIP5K1A (human)): 11%; kinase still bound, per cent of control (CDK16 (human)): 0.15%; kinase still bound, per cent of control (PHKG2 (human)): 16%; kinase still bound, per cent of control (MYLK (human)): 14%; kinase still bound, per cent of control (MAP3K5 (human)): 19%

The next lines start with results.

Row | kinase still bound, per cent of control (MYLK3 (human)) [%] | kinase still bound, per cent of control (STK17A (human)) [%] | kinase still bound, per cent of control (CDK7 (human)) [%] | kinase still bound, per cent of control (PIM3 (human)) [%] | kinase still bound, per cent of control (RPS6KA5 KD2 (human)) [%] | kinase still bound, per cent of control (STK17B (human)) [%] | kinase still bound, per cent of control (BMP2K (human)) [%] | kinase still bound, per cent of control (DMPK (human)) [%] | kinase still bound, per cent of control (PIM1 (human)) [%] | kinase still bound, per cent of control (ACVR2B (human)) [%] | kinase still bound, per cent of control (RIOK1 (human)) [%] | kinase still bound, per cent of control (TAOK3 (human)) [%] | kinase still bound, per cent of control (AAK1 (human)) [%] | kinase still bound, per cent of control (PIK3CG (human)) [%] | kinase still bound, per cent of control (CSNK2A2 (human)) [%] | kinase still bound, per cent of control (DCLK3 (human)) [%] | kinase still bound, per cent of control (MINK1 (human)) [%] | kinase still bound, per cent of control (PLK4 (human)) [%] | kinase still bound, per cent of control (BRSK2 (human)) [%] | Compound | kinase still bound, per cent of control (MAPK15 (human)) [%] | other results
3 | 2 | 0.3 | 8.8 | 5.4 | 11 | 1 | 1 | 27 | 4.8 | 10 | 9.8 | 24 | 1.8 | 11 | 9.6 |  |  |  |  | Nc1cccc(-c2cc(/C=C3\SC(=O)NC3=O)c[nH]c2=O)c1 | 0.55 | kinase still bound, per cent of control (PIP4K2B (human)): 6.6%; kinase still bound, per cent of control (CSNK2A1 (human)): 17%; kinase still bound, per cent of control (PIP5K1A (human)): 17%; kinase still bound, per cent of control (MAP4K2 (human)): 30%; kinase still bound, per cent of control (AURKC (human)): 30%; kinase still bound, per cent of control (RPS6KA2 KD2 (human)): 3.8%; kinase still bound, per cent of control (CSNK1D (human)): 23%; kinase still bound, per cent of control (PHKG2 (human)): 11%; kinase still bound, per cent of control (AURKB (human)): 8%; kinase still bound, per cent of control (CSNK1G1 (human)): 19%; kinase still bound, per cent of control (MYLK (human)): 25%; kinase still bound, per cent of control [1]: 0.6%
4 | 19 | 0.45 |  |  |  | 5.4 | 22 | 22 |  | 4.2 | 7.8 | 4.7 | 32 | 32 |  | 0.9 | 4.4 | 5.6 | 28 | CS(=O)(=O)Nc1ccc(-c2cncc(/C=C3\SC(=N)NC3=O)c2)cc1 | 13 | kinase still bound, per cent of control (ACVR2A (human)): 0.9%; kinase still bound, per cent of control [2]: 2.2%; kinase still bound, per cent of control (CIT (human)): 0.8%; kinase still bound, per cent of control (MAP4K2 (human)): 5.8%; kinase still bound, per cent of control (AURKC (human)): 16%; kinase still bound, per cent of control (CSNK1D (human)): 1.4%; kinase still bound, per cent of control (GSK3A (human)): 13%; kinase still bound, per cent of control (MAP3K7 (human)): 3.4%; kinase still bound, per cent of control (AURKB (human)): 24%; kinase still bound, per cent of control (CSNK1G1 (human)): 18%; kinase still bound, per cent of control (MKNK2 (human)): 24%; kinase still bound, per cent of control [3]: 28%
5 |  | 0.35 | 8.8 | 8 | 11 | 1.7 | 6.3 | 18 | 4 |  | 10 |  | 12 | 33 | 32 | 13 | 29 |  |  | N=C1NC(=O)/C(=C/c2c[nH]c(=O)c(-c3ccc(N4CCNCC4)nc3)c2)S1 | 4 | kinase still bound, per cent of control (PIP4K2B (human)): 8.4%; kinase still bound, per cent of control (PIP5K1A (human)): 14%; kinase still bound, per cent of control (MAP4K2 (human)): 32%; kinase still bound, per cent of control (RPS6KA2 KD2 (human)): 33%; kinase still bound, per cent of control (NEK2 (human)): 13%; kinase still bound, per cent of control [1]: 1.4%
6 | 22 | 0.3 | 1 | 5.4 |  | 1.5 |  | 14 | 3 | 22 |  | 13 | 15 | 2.6 | 6.7 | 2.7 |  | 8.8 | 17 | N=C1NC(=O)/C(=C/c2ccc(-c3ccc(C(N)=O)cc3O)o2)S1 | 0.1 | kinase still bound, per cent of control (CSNK2A1 (human)): 5.8%; kinase still bound, per cent of control (CIT (human)): 19%; kinase still bound, per cent of control (CDK16 (human)): 0.65%; kinase still bound, per cent of control (GSK3A (human)): 17%; kinase still bound, per cent of control (MAP3K5 (human)): 31%; kinase still bound, per cent of control [1]: 16%
